The source made the active and inactive calls. The calls are words filed in the database; no cut-off is given here.
Experiments:
Format in all cases: functional
[1] = tested on: Radical scavenging activity; assay: Antioxidant activity assessed as DPPH radical scavenging activity at 300 uM after 48 hrs by spectrophotometry
[2] = Antioxidant activity assessed as oxygen radical scavenging activity by ORAC assay
[3] = Antioxidant activity assessed as ABTS radical scavenging activity

Compound	Activity [1]	Activity [2]	Activity [3]
OCCc1ccc(O)cc1	26%	Active	
Cc1cc(C(C)(C)C)c(O)c(C(C)(C)C)c1	86%		
O=C1N[C@@H](Cc2ccc(O)cc2)C(=O)N2CCC[C@@H]12	16%		
CC(O)C(=O)OCCc1c[nH]c2ccccc12 (stereo not drawn)	33%		
OCCc1c[nH]c2ccccc12	52%		Active
O=C(CCCCO)OCCc1c[nH]c2ccccc12	47%		
